The record followed here is patent US9302999B2, “Substituted triazoles as herbicides” (E. I. DU PONT DE NEMOURS AND COMPANY, priority 2012, dated 2016).

The test system of assay [1] is blackgrass (Alopecurus myosuroides). In words: Test D pre-/postemergence: blackgrass. Type of assay: in vivo. Put shortly:
(§1)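 Scores run from 0 (no effect) to 100 (complete control), assigned by visual comparison with controls after 14 to 21 days in a controlled environment. Both preemergence application to silt loam and postemergence application to 1- to 4-leaf plants were tested.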

Assay [2] relates to cocklebur (common cocklebur, Xanthium strumarium). The assay can be described thus: Test F pre-/postemergence: cocklebur. The conditions noted are these: Preemergence, scale 0 to 100. Type of assay: in vivo. The essentials:
(§2)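 0–100 visual control scores, taken 14–21 d after application in the greenhouse. Preemergence treatment was made to silt loam soil at sowing. Postemergence sprays hit 1- to 4-leaf plants (2–18 cm) in peat/vermiculite mix. Surfactant-containing non-phytotoxic solvent served as the vehicle.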

For assay [3], the system named is crabgrass, large (large crabgrass, Digitaria sanguinalis). In words: Test F pre-/postemergence: crabgrass, large. The conditions noted are these: Preemergence, scale 0 to 100. Type of assay: in vivo. The essentials: as §2
The subject of assay [4] is windgrass (Apera spica-venti). The assay can be described thus: Test D pre-/postemergence: windgrass. In kind it is in vivo. The essentials:
as §1

In the next assay the test system is Oilseed Rape. The assay can be described thus: Test C preemergence: oilseed rape. In kind it is in vivo, Brassica napus. The conditions noted are these: 125 g ai/ha, scale 0 to 100, 0 no effect, 100 complete control.
Setting [5] is: Postemergence, 62 g ai/ha, scale 0 to 100 (0 no effect, 100 complete control).
Where [6] appears, read: Postemergence, 125 g ai/ha, scale 0 to 100, 0 no effect, 100 complete control.
[7] abbreviates: Postemergence, 16 g ai/ha, scale 0 to 100.
[8] abbreviates: Preemergence, 16 g ai/ha, scale 0 to 100, 0 no effect, 100 complete control.
Where [9] appears, read: Preemergence, 31 g ai/ha, scale 0 to 100, 0 no effect, 100 complete control.
[10] abbreviates: Preemergence, 62 g ai/ha, scale 0 to 100.
Setting [11] is: Preemergence, 125 g ai/ha, scale 0 to 100.

Structures are written as SMILES.

On to `CCc1nn(-c2ccc(C(F)(F)F)cc2)nc1Cc1ccnc(C(F)(F)F)c1` [Compound 155], for which the “Plant response rating: Blackgrass” value in assay [1] (Postemergence, 31 g ai/ha, scale 0 to 100 (0 no effect, 100 complete control)) turned out to be 50; in assay [1] (setting [5]) it was 60; in assay [1] (setting [6]) it was 85. Further, the “Plant response rating, Blackgrass” value stood at 5 in assay [1] (setting [7]); 5 in assay [1] (setting [8]); 10 in assay [1] (setting [9]); 20 in assay [1] (setting [10]); 70 in assay [1] (setting [11]). Also, the “Plant response rating, Cocklebur” value in assay [2] (62 g ai/ha) was 0; in assay [2] (125 g ai/ha) it was 40; in assay [2] (250 g ai/ha), 40. Also, the “Plant response rating, Crabgrass, Large” value in assay [3] (62 g ai/ha), in assay [3] (125 g ai/ha) and in assay [3] (250 g ai/ha) was 100 in each case. Further, the “Plant response rating: Windgrass” value in assay [4] (setting [5]) stood at 80; in assay [4] (setting [6]), 95. Moreover, the “Plant response rating, Windgrass” value in assay [4] (setting [7]) is reported as 20; in assay [4] (Postemergence, 31 g ai/ha, scale 0 to 100), 70; in assay [4] (setting [8]), 5; in assay [4] (setting [9]), 10; in assay [4] (setting [10]) it was 85; in assay [4] (setting [11]) it was 100. In the assay on Oilseed Rape, the “Plant response rating, Oilseed Rape” value was determined as 90.
